Assay results taken from patent US9758538B2, “Pyrimidine derivatives” (PFIZER INC., priority 2015, dated 2017).

Target: truncated PI3Kα (p110α/iSH2 p85α), PI3KA_Act (Homo sapiens (Human), UniProt P42336)
Assay: PI3Kα biochemical kinase assay, fluorescence polarization format (PI3KA_Act)
Conditions: 0.5 nM p110α/iSH2 p85, 1 mM ATP, 30 μM PIP2, 15-min preincubation; Morrison equation fit; read-out: PI3KA_Act Ki
Procedure: Enzyme Production for Biochemical Assay: p110α-iSH2 p85α Complex (Full Length p110α and p85α iSH2)(“PI3KA Act”)
Gene encoding p110α subunit was subcloned into polyhedrine promoter while gene encoding p85α niSH2 domains was subcloned into p10 promoter. […] Recombinant baculovirus was generated using Bac-to-Bac protocol (Life Technologies, Carlsbad, Calif.). Large scale expression was conducted in Sf21 (Life Technologies, Carlsbad, Calif.) cells at a multiplicity of infection (“MOI”)=1 for 48 hours. Cells were lyzed in 50 mM Tris pH 8.0, 250 mM NaCl, 5% glycerol, 0.25 mM TCEP, and 20 mM imidazole. The p110α-niSH2 p85α complex was purified from clarified supernatant using Immobilized Metalo Affinity Chromatography (“IMAC”). The protein was eluted from the column using 50 mM Tris pH 8.0, 200 mM NaCl, 0.25 mM TCEP, and 200 mM imidazole. Following elution p110α-niSH2 p85α complex was dialyzed against 4 liters of 50 mM Tris pH 8.0, 200 mM NaCl, 0.25 mM TCEP, and 40 mM imidazole in the presence of PreScission Protease (1:70 molar ratio of Protease to Protein) and TEV protease (1:40 molar ratio protease to protein) for 16 hours at 4° C. The protein was further purified using reverse IMAC to remove cleaved histidine tag and contaminants captured during initial IMAC purification. The mixture of p110α-iSH2 p85α complex and cleaved nSH2 was recovered in reverse IMAC 40 mM imidazole flow through and 60 mM imidazole wash fractions. Those fractions were pulled together and loaded on Superdex 200 26/60 SEC column equilibrated in 25 mM Tris, pH 8.0, 100 mM NaCl, 2% glycerol, and 2 mM TCEP.
The enzymatic reactions were conducted in 50 μL volumes in 96-well plates. […] The reactions were incubated for 30 min at room temperature, stopped with EDTA pH 8 (10 mM final concentration). […] The plate was shaken for 30 minutes and fluorescence polarization values were measured on an LJL Analyst HT plate reader (Molecular Devices, Sunnyvale, Calif.).

truncated PI3Kα (p110α/iSH2 p85α), PI3KA_Act, sequence (P42336 whole entry, the tested form may be a part): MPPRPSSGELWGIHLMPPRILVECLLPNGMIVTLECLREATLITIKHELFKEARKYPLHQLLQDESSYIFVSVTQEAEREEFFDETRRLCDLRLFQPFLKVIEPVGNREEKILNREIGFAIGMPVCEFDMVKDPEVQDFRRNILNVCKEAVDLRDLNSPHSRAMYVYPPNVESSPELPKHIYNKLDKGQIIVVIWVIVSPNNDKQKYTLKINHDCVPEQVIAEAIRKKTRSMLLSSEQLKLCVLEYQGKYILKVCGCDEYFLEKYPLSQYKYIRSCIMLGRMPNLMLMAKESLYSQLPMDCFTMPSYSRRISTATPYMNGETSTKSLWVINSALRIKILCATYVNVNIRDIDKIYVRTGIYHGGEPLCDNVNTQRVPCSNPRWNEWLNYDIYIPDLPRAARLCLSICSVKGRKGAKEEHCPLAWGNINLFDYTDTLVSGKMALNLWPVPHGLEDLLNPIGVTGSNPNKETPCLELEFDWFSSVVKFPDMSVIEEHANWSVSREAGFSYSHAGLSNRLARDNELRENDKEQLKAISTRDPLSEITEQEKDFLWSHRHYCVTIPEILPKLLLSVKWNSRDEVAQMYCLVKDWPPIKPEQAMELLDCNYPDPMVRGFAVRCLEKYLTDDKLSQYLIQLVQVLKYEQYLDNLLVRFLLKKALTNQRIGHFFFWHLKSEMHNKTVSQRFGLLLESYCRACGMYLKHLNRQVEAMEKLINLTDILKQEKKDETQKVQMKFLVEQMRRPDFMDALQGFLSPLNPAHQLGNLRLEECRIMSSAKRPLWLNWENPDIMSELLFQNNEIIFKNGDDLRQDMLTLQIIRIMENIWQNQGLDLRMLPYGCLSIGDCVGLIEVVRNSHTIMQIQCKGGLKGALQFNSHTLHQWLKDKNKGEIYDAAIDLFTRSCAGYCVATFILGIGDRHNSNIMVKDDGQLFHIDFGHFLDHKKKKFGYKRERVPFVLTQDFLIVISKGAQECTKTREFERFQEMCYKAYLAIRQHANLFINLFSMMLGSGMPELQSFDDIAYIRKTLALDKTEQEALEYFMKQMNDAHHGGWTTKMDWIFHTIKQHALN

Row | SMILES | Ki
1 | CC(C)(C)OC(=O)N1CC[C@](C)(Nc2cc(-c3cnc(N)nc3)nc(N3CCOCC3)n2)C1 [Example 40, tert-butyl (3S)-3-{[2′-amino-2-(morpholin-4-yl)-4,5′-bipyrimidin-6-yl]amino}-3-methylpyrrolidine-1-carboxylate] | 0.095 nM
2 | CC(C)(C)OC(=O)N1CC(CO)(Nc2cc(-c3cnc(N)nc3)nc(N3CCOCC3)n2)C1 [Example 41, tert-butyl 3-{[2′-amino-2-(morpholin-4-yl)-4,5′-bipyrimidin-6-yl]amino}-3-(hydroxymethyl)azetidine-1-carboxylate] | 0.128 nM
3 | CC(=O)N1CC(CO)(Nc2cc(-c3cnc(N)nc3)nc(N3CCOCC3)n2)C1 [Example 42, 1-[3-{[2′-amino-2-(morpholin-4-yl)-4,5′-bipyrimidin-6-yl]amino}-3-(hydroxymethyl)azetidin-1-yl]ethanone] | 0.651 nM
4 | Nc1ncc(-c2cc(NC3(CO)CNC3)nc(N3CCOCC3)n2)cn1 [Example 43, (3-{[2′-amino-2-(morpholin-4-yl)-4,5′-bipyrimidin-6-yl]amino}azetidin-3-yl)methanol] | 1.97 nM
5 | CC(C)(C)NC(=O)N1CC[C@](CO)(Nc2cc(-c3cnc(N)nc3)nc(N3CCOCC3)n2)C1 [Example 48, (3S)-3-{[2′-amino-2-(morpholin-4-yl)-4,5′-bipyrimidin-6-yl]amino}-N-tert-butyl-3-(hydroxymethyl)pyrrolidine-1-carboxamide] | 0.714 nM
6 | C[C@H]1COCCN1c1nc(NC2(CO)CN(C(=O)OC(C)(C)C)C2)cc(-c2cnc(N)nc2)n1 [Example 49, tert-butyl 3-({2′-amino-2-[(3S)-3-methylmorpholin-4-yl]-4,5′-bipyrimidin-6-yl}amino)-3-(hydroxymethyl)azetidine-1-carboxylate] | 0.083 nM
7 | CC(C)[C@@H](N)C(=O)N1CC[C@](CO)(Nc2cc(-c3cnc(N)nc3)nc(N3CCOCC3)n2)C1 [Example 50, (2R)-2-amino-1-[(3S)-3-{[2′-amino-2-(morpholin-4-yl)-4,5′-bipyrimidin-6-yl]amino}-3-(hydroxymethyl)pyrrolidin-1-yl]-3-methylbutan-1-one] | 0.137 nM
8 | CC(C)[C@H](N)C(=O)N1CC[C@](CO)(Nc2cc(-c3cnc(N)nc3)nc(N3CCOCC3)n2)C1 [Example 51, (2S)-2-amino-1-[(3S)-3-{[2′-amino-2-(morpholin-4-yl)-4,5′-bipyrimidin-6-yl]amino}-3-(hydroxymethyl)pyrrolidin-1-yl]-3-methylbutan-1-one] | 0.619 nM
9 | CC(C)S(=O)(=O)N1CC[C@](CO)(Nc2cc(-c3cnc(N)nc3)nc(N3CCOCC3)n2)C1 [Example 52, [(3S)-3-{[2′-amino-2-(morpholin-4-yl)-4,5′-bipyrimidin-6-yl]amino}-1-(propan-2-ylsulfonyl)pyrrolidin-3-yl]methanol] | 0.084 nM
10 | C[C@H]1COCCN1c1nc(NC2(CO)CNC2)cc(-c2cnc(N)nc2)n1 [Example 54, [3-({2′-amino-2-[(3S)-3-methylmorpholin-4-yl]-4,5′-bipyrimidin-6-yl}amino)azetidin-3-yl]methanol] | 2.67 nM
11 | Nc1ncc(-c2cc(N[C@@]3(CO)CCN(C(=O)[C@H](O)c4ccccc4)C3)nc(N3CCOCC3)n2)cn1 [Example 55, (2R)-1-[(3S)-3-{[2′-amino-2-(morpholin-4-yl)-4,5′-bipyrimidin-6-yl]amino}-3-(hydroxymethyl)pyrrolidin-1-yl]-2-hydroxy-2-phenylethanone] | 0.371 nM
12 | CC(C)CC(=O)N1CC[C@](CO)(Nc2cc(-c3cnc(N)nc3)nc(N3CCOCC3)n2)C1 [Example 57, 1-[(3S)-3-{[2′-amino-2-(morpholin-4-yl)-4,5′-bipyrimidin-6-yl]amino}-3-(hydroxymethyl)pyrrolidin-1-yl]-3-methylbutan-1-one] | 0.116 nM
13 | COC(=O)N1CC[C@](CO)(Nc2cc(-c3cnc(N)nc3C(F)(F)F)nc(N3CCOCC3)n2)C1 [Example 58, methyl (3S)-3-{[2′-amino-2-(morpholin-4-yl)-4′-(trifluoromethyl)-4,5′-bipyrimidin-6-yl]amino}-3-(hydroxymethyl)pyrrolidine-1-carboxylate] | 0.2 nM
14 | COC(=O)N1CC[C@](CO)(Nc2cc(-c3cnc(N)nc3C)nc(N3CCOCC3)n2)C1 [Example 59, methyl (3S)-3-{[2′-amino-4′-methyl-2-(morpholin-4-yl)-4,5′-bipyrimidin-6-yl]amino}-3-(hydroxymethyl)pyrrolidine-1-carboxylate] | 0.18 nM
15 | Nc1ncc(-c2cc(N[C@@]3(CO)CCN(C(=O)[C@@H](O)c4ccccc4)C3)nc(N3CCOCC3)n2)cn1 [Example 60, (2S)-1-[(3S)-3-{[2′-amino-2-(morpholin-4-yl)-4,5′-bipyrimidin-6-yl]amino}-3-(hydroxymethyl)pyrrolidin-1-yl]-2-hydroxy-2-phenylethanone] | 12.7 nM
16 | Nc1ncc(-c2cc(N[C@@]3(CO)CCN(C(=O)c4ccccn4)C3)nc(N3CCOCC3)n2)cn1 [Example 63, [(3S)-3-{[2′-amino-2-(morpholin-4-yl)-4,5′-bipyrimidin-6-yl]amino}-3-(hydroxymethyl)pyrrolidin-1-yl](pyridin-2-yl)methanone] | 0.062 nM
17 | Nc1ncc(-c2cc(N[C@@]3(CO)CCN(CC(F)F)C3)nc(N3CCOCC3)n2)cn1 [Example 67, [(3S)-3-{[2′-amino-2-(morpholin-4-yl)-4,5′-bipyrimidin-6-yl]amino}-1-(2,2-difluoroethyl)pyrrolidin-3-yl]methanol] | 1.52 nM
18 | CCOC(=O)N1CC[C@](CO)(Nc2nc(N3CCOCC3)nc(-c3cnc(N)nc3)c2F)C1 [Example 69, ethyl (3S)-3-{[2′-amino-5-fluoro-2-(morpholin-4-yl)-4,5′-bipyrimidin-6-yl]amino}-3-(hydroxymethyl)pyrrolidine-1-carboxylate] | 0.15 nM
19 | Nc1ncc(-c2cc(N[C@@]3(CO)CCN(CC4CC4)C3)nc(N3CCOCC3)n2)cn1 [Example 71, [(3S)-3-{[2′-amino-2-(morpholin-4-yl)-4,5′-bipyrimidin-6-yl]amino}-1-(cyclopropylmethyl)pyrrolidin-3-yl]methanol] | 9.47 nM

These reach a lower Ki. Values come first.

Row | Ki | SMILES
20 | 0.032 nM | CC(C)OC(=O)N1CC[C@](CO)(Nc2cc(-c3cnc(N)nc3)nc(N3CCOCC3)n2)C1 [Example 44, propan-2-yl (3S)-3-{[2′-amino-2-(morpholin-4-yl)-4,5′-bipyrimidin-6-yl]amino}-3-(hydroxymethyl)pyrrolidine-1-carboxylate]
21 | < 0.018 nM | Nc1ncc(-c2cc(N[C@@]3(CO)CCN(C(=O)[C@@H]4CC4(F)F)C3)nc(N3CCOCC3)n2)cn1 [Example 46, [(3S)-3-{[2′-amino-2-(morpholin-4-yl)-4,5′-bipyrimidin-6-yl]amino}-3-(hydroxymethyl)pyrrolidin-1-yl][(1S)-2,2-difluorocyclopropyl]methanone]
22 | 0.025 nM | CC1(OC(=O)N2CC[C@](CO)(Nc3cc(-c4cnc(N)nc4)nc(N4CCOCC4)n3)C2)CC1 [Example 47, 1-methylcyclopropyl (3S)-3-{[2′-amino-2-(morpholin-4-yl)-4,5′-bipyrimidin-6-yl]amino}-3-(hydroxymethyl)pyrrolidine-1-carboxylate]
23 | < 0.018 nM | Nc1ncc(-c2cc(N[C@@]3(CO)CCN(C(=O)C4(F)CC4)C3)nc(N3CCOCC3)n2)cn1 [Example 56, [(3S)-3-{[2′-amino-2-(morpholin-4-yl)-4,5′-bipyrimidin-6-yl]amino}-3-(hydroxymethyl)pyrrolidin-1-yl](1-fluorocyclopropyl)methanone]
24 | 0.054 nM | CC(C)(C)CC(=O)N1CC[C@](CO)(Nc2cc(-c3cnc(N)nc3)nc(N3CCOCC3)n2)C1 [Example 61, 1-[(3S)-3-{[2′-amino-2-(morpholin-4-yl)-4,5′-bipyrimidin-6-yl]amino}-3-(hydroxymethyl)pyrrolidin-1-yl]-3,3-dimethylbutan-1-one]
25 | < 0.018 nM | CCOC(=O)N1CC[C@](CO)(Nc2cc(-c3cnc(N)nc3)nc(N3CCOC[C@@H]3C)n2)C1 [Example 64, ethyl (3S)-3-({2′-amino-2-[(3S)-3-methylmorpholin-4-yl]-4,5′-bipyrimidin-6-yl}amino)-3-(hydroxymethyl)pyrrolidine-1-carboxylate]
26 | < 0.018 nM | COC(=O)N1CC[C@](CO)(Nc2cc(-c3cnc(N)nc3)nc(N3CCOC[C@@H]3C)n2)C1 [Example 65, methyl (3S)-3-({2′-amino-2-[(3S)-3-methylmorpholin-4-yl]-4,5′-bipyrimidin-6-yl}amino)-3-(hydroxymethyl)pyrrolidine-1-carboxylate]
27 | 0.031 nM | CC(C)OC(=O)N1CC[C@](CO)(Nc2nc(N3CCOCC3)nc(-c3cnc(N)nc3)c2F)C1 [Example 70, propan-2-yl (3S)-3-{[2′-amino-5-fluoro-2-(morpholin-4-yl)-4,5′-bipyrimidin-6-yl]amino}-3-(hydroxymethyl)pyrrolidine-1-carboxylate]
